Patent US7491507B2, “Process for preparing peptides with anti-hypertensive properties” (Chr. Hansen A/S, priority 2002, dated 2009)

System: Spontaneously Hypertensive Rats (SHR)
Assay: In vivo test of anti-hypertensive properties: systolic blood pressure by plethysmography in conscious SHR after gavage
Set-up: species or system rat
Conditions: gavage 2 ml of product (Enalapril 20 mg/kg in milk)
Experimental: Strains were streaked on MRS agar and incubated anaerobically for 48 h at 37° C. A single colony was picked, inoculated into MRS broth and grown overnight at 37° C. Stock cultures were prepared from this overnight culture and were stored at −80° C. in 20% glycerol. The strains were precultivated in milk overnight and inoculated 1% (v/v) in fresh milk for the fermentation.
The milk was fermented with the strains of single or mixed cultures for 16 hours with an inoculation level of 1% (v/v). The total product was freeze-dried. A second fermentation, with the same conditions as the first one, was centrifuged. The pellet was discarded and the whey was filtered through a […] filter and frozen. The whey was used to solubilize the freeze-dried powder to concentrate it with a factor 5 before feeding the rats.
Spontaneously Hypertensive Rats (SHR) was obtained from IFFA CREDO (a Charles River company), Lyon, France. […]
Systolic blood pressure was determined by plethysmography in conscious SHR before as well as […] after gavages, at the different times described below. […]
Systolic blood pressure of Group 1 was determined parallel to those of groups 2 and 3 and serves as control.
The day of the gavage systolic blood pressure was determined before as well as 6 and 24 hours after gavage.

With `CCOC(=O)[C@H](CCc1ccccc1)N[C@@H](C)C(=O)N1CCC[C@H]1C(=O)O` [Enalapril] the “variation of systolic blood pressure” value (5 hours after administration) was −30 and the “variation of systolic blood pressure” value (24 hours after administration) was −17.
